Experiments:
[1] = tested on: cortical neurons; assay: Apoptosis by NMDA after blockade of synaptic NMDA receptors (extrasynaptic receptors); assay type: cell-based, rat; details: synaptic receptors blocked with MK-801 plus bicuculline; NMDA 50 μM plus 10 μM glycine 20 min; assayed 20 h after
Method: In accordance with various aspect of the invention, we have illustrated the role of extrasynaptic NR2A- and NR2B-containing receptors in mediating NMDA-induced cell survival and death. After a specific blockade of synaptic NMDA receptors and wash-out of bicuculline and MK-801, the neurons were treated with NMDA (50 μM plus 10 μM glycine) for 20 min in the absence or presence of NVP-AAM077 (0.4 μM) or Ro 25-6981 (0.5 μM). […] Thus, as with synaptic NMDA receptors, activation of extrasynaptic NR2A-containing receptors has a role in promoting cell survival, counteracting NR2B-containing receptor-mediated neuronal apoptosis. […]
(§1) To visualize injured neurons, Hoechst-33342 (10 μg/ml) was added to the culture medium 20 h after treatments and incubated for 45 min at 37 °C. Images were taken with a Leica DMIRE2 fluorescence microscope. Quantitative assessment of neuronal apoptosis was performed 20 h following treatments using a Cell Death Detection ELISAPLUS Kit (Roche Applied Science). Absorbance readings were determined using a spectrophotometric microplate reader. […] Data are expressed as the difference in apoptosis relative to control and are expressed as a percentage.

[2] = tested on: middle cerebral artery occlusion (MCAo); assay: MCAo focal ischemic stroke model, pretreatment; assay type: in vivo, rat; details: for neurological function (behavioral tests) / infarct area: i.v. 30 min before 1-h MCAo; for neurological function (behavioral tests): 24 h after onset; for infarct area: NVP-AAM077 2.4 mg/kg, Ro 25-6981 6 mg/kg, 24 h
Method: This aspect of the invention was also illustrated in vivo using a rat focal ischemic stroke model—middle cerebral artery occlusion (MCAo) (Aarts et al., 2002; Bederson et al., 1986). We first infused NVP-AAM077 (2.4 mg/kg), Ro 25-6981 (6 mg/kg (Loschmann et. al., 2004)) or vehicle (saline) intravenously in the rats 30 min prior to stroke onset. The animals were then subjected to a 1-h transient ischemic stroke induced by MCAo. This relatively short duration of ischemia was chosen to unmask the potential neuroprotective effects mediated by NR2A-containing receptors activated during the stroke challenge. Neurological score and cerebral infarction were examined 24 h after the MCAo onset. […] Together, these observations indicate that both NR2A- and NR2B-containing NMDA receptor subtypes are activated during stroke, exerting opposing effects on ischemic brain damage.
Transient cerebral focal ischemia was produced by middle cerebral artery occlusion (MCAo) as described (Aarts et al., 2002; Bederson et al., 1986; Longa et al., 1989). Briefly, male Sprague-Dawley rats (Charles River Laboratories) weighing ˜300 g were anesthetized and MCAo was achieved by introducing a 3-0 monofilament suture into the MCA via the internal carotid artery. Body temperature was maintained at 37.0±0.5° C., and blood pressure and blood gases were monitored during the experiments. Animals were sacrificed 24 h following MCAo onset. Cerebral infarction was analyzed using brain sections stained with hematoxylin and eosin (H & E) or 2,3,5-triphenyltetrazolium chloride (TTC). 10 min before the animals were sacrificed, two tests, the postural reflex test to examine upper body posture (Bederson et al., 1986) and the forelimb placing test to examine sensorimotor integration in forelimb placing responses to visual, tactile, and proprioceptive stimuli (De Ryck et al., 1989), were performed to grade neurological function on a scale of 0 to 12 (0=normal, 12=worst). In the pretreatment study, a single bolus of drugs (NR2A-specific antagonist NVP-AAM077 (2.4 mg/kg) or NR2B specific antagonist Ro 25-6981 (6 mg/kg) or vehicle (saline)) was infused intravenously 30 min before a 1-h MCAo. For post-treatment experiments, animals were subjected to a 1.5-h MCAo and drug treatments (glycine, 800 mg/kg; NVP-AAM077 and Ro 25-6981 at the same doses as in the pretreatment study) were then given via intraperitoneal injection (i.p.) 3 h after reperfusion (4.5 h after the onset of MCAo).

[3] = tested on: cortical neurons; assay: Neuronal apoptosis with bicuculline-enhanced activation of synaptic NMDA receptors; assay type: cell-based, rat; details: bicuculline 50 μM, 4 h; for neuronal apoptosis on co-application with bicuculline: apoptosis quantified 20 h after
Method: The function of the NR2A and NR2B synaptic receptor subpopulations in mediating neuronal survival or death is also illustrated herein, as follows. To increase activation of synaptic NMDA receptors by synaptically released glutamate, neurons were incubated with the GABAA receptor antagonist bicuculline (50 μM, 4 h). Bicuculline increases neuronal excitation by blocking the GABAA receptor-mediated synaptic inhibition and thereby enhances action potential-dependent synchronized release of glutamate from presynaptic terminals. Neuronal apoptosis was quantified 20 h following the treatments. […] The NR2A blockade-induced neuronal apoptosis was demonstrably mediated by synaptic NR2B-containing receptors, as it was prevented in the presence of Ro 25-6981 (p<0.01; FIG. 3B).
Dissociated cultures of cortical neurons were prepared from 18-day Sprague-Dawley rat embryos as described previously (Mielke et al., 2005). To obtain mixed cortical cultures enriched with neurons, uridine (10 μM) and 5-Fluor-2′-deoxyuridine (10 μM) were added to the culture medium at 3 DIV and maintained for 48 h, to inhibit non-neuronal cell proliferation, before the cultures were shifted back to the normal culture medium. Mature neurons (11-14 DIV) were used for experiments. To induce neuronal apoptosis, cortical cultures were stimulated with NMDA (50 μM) and glycine (10 μM) for 20 min, or STS (100 nM) for 1 h in Mg2+-free extracellular solution (ECS) containing (mM): 25 HEPES acid, 140 NaCl, 33 glucose, 5.4 KCl and 1.3 CaCl2, with pH 7.35 and osmolarity 320-330 mOsm. […]
as §1

| Compound | effect on apoptosis elicited by NMDA via extrasynaptic NMDA receptors [1] | decrease of total infarct volume compared with saline-treated animals ([2]; 6 mg/kg i.v. 30 min before 1-h MCAo, 24 h after MCAo onset) [%] | neurological function (behavioral tests) [2] | infarct area [2] | effect on NR2A blockade (NVP-AAM077 + bicuculline)-induced neuronal apoptosis ([3]; plus NVP-AAM077) | neuronal apoptosis on co-application with bicuculline [3] | increase in total infarct volume compared with saline-treated animals ([2]; 2.4 mg/kg i.v. 30 min before 1-h MCAo, 24 h after MCAo onset) [%] |
| --- | --- | --- | --- | --- | --- | --- | --- |
| C[C@@H](CN1CCC(Cc2ccccc2)CC1)[C@@H](O)c1ccc(O)cc1 (relative stereo) [Ro 25-6981, [R-(R*,S*)]-α-(4-Hydroxyphenyl)-β-methyl-4-(phenylmethyl)-1-piperidinepropanol] | prevented | 67.8±4.3 | significant protective effect | decreased | prevented | did not cause apoptotic cell death |  |
| C[C@H](NC(c1cccc2[nH]c(=O)c(=O)[nH]c12)P(=O)(O)O)c1ccc(Br)cc1 (some centres unmarked) [NVP-AAM077] | potentiated NMDA-mediated apoptosis |  | trend toward poorer neurological function | increased |  | significantly increased neuronal apoptosis | 67.0±17.9 |
